Measurements taken from the supplement of paper PMC10307832.

Key:
Test in all cases: relative viability (nuclei count vs DMSO), 5 days (fraction); higher = more cells survive
[1] = compound: OCc1c[nH]c2ccccc12 [Indole-3-carbinol] + CS(=O)(=O)N1CCN(Cc2cc3nc(-c4cccc5[nH]ncc45)nc(N4CCOCC4)c3s2)CC1 [Pictilisib] (partner 1 µM)
Outline: (§1)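 Cells from lung cancer lines were seeded into 1536-well plates and, one day later, dosed by pin tool. Treatments were either a single drug or a fixed dose of an anchor drug with five library-drug doses (not always all listed) in √10 steps. After 5 days, nuclei were stained in a one-step fixation (final 0.05% Triton X-100, 1% formaldehyde, 1 ug/ml Hoechst) and counted on 4× images, and relative viability is the treated-to-vehicle nuclei ratio, as the median of duplicate plates.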

[2] = compound: OCc1c[nH]c2ccccc12 [Indole-3-carbinol] + Cc1cc(Nc2cc(N3CCN(C)CC3)nc(Sc3ccc(NC(=O)C4CC4)cc3)n2)n[nH]1 [Tozasertib] (partner 0.1 µM)
Outline: as §1

[3] = compound: OCc1c[nH]c2ccccc12 [Indole-3-carbinol] + Cc1nc(NC(=O)N2CCC[C@H]2C(N)=O)sc1-c1ccnc(C(C)(C)C(F)(F)F)c1 [Alpelisib] (partner 2 µM)
Outline: as §1

[4] = compound: OCc1c[nH]c2ccccc12 [Indole-3-carbinol] + N=C(N)NC(=N)NCCc1ccccc1 [Phenformin] (partner 250 µM)
Outline: as §1

[5] = compound: OCc1c[nH]c2ccccc12 [Indole-3-carbinol] + O=C(CCCCCCC(=O)Nc1ccccc1)NO [Vorinostat] (partner 1 µM)
Outline: as §1

Cell Line	relative viability ([1]; first compound 0.253 µM)	relative viability ([1]; first compound 0.8 µM)	relative viability ([1]; first compound 2.53 µM)	relative viability ([1]; first compound 8 µM)	relative viability ([2]; first compound 0.253 µM)	relative viability ([2]; first compound 0.8 µM)	relative viability ([2]; first compound 2.53 µM)	relative viability ([2]; first compound 8 µM)	relative viability ([3]; first compound 0.253 µM)	relative viability ([3]; first compound 0.8 µM)	relative viability ([3]; first compound 2.53 µM)	relative viability ([3]; first compound 8 µM)	relative viability ([4]; first compound 0.253 µM)	relative viability ([4]; first compound 0.8 µM)	relative viability ([4]; first compound 2.53 µM)	relative viability ([4]; first compound 8 µM)	relative viability ([5]; first compound 0.253 µM)	relative viability ([5]; first compound 0.8 µM)	relative viability ([5]; first compound 2.53 µM)	relative viability ([5]; first compound 8 µM)
201T	0.653	0.682	0.621	0.699	0.958	0.978	1.02	0.969	0.954	1.04	1.06	1.06	0.42	0.478	0.505	0.446	1.1	0.88	0.978	0.927
A-427	0.74	0.66	0.679	0.588	0.193	0.226	0.226	0.224	1.01	1.14	1.05	0.953	0.35	0.351	0.339	0.298	0.836	0.818	0.86	0.825
ABC-1	0.755	0.786	0.782	0.66	0.186	0.214	0.164	0.158	0.923	1.2	1.01	0.923	0.254	0.238	0.265	0.259	1.59	1.05	1.23	1.1
BEN	0.497	0.456	0.69	0.542	0.463		0.479	0.554	0.948	0.808	1.02	0.929	0.269	0.262	0.265	0.253	0.512	0.512	0.63	0.631
CAL-12T	0.338	0.616	0.398	0.377	0.291	0.351	0.335	0.278	1.04	1.61	1.47	1.17	0.584	0.553	0.58	0.559	0.844	0.808	0.908	0.741
COR-L23	0.876	0.848	0.828	0.674	0.201	0.243	0.296	0.185	0.818	1.06	0.673	0.601	0.413	0.456	0.41	0.403	0.445	0.492	0.459	0.371
COR-L 105	0.371	0.374	0.432	0.382	0.366	0.385	0.378	0.347	1.07	1.21	0.925	0.979	0.497	0.408	0.488	0.416	0.916	0.847	0.73	0.862
ChaGo-K-1	0.524	0.891	0.666	0.649	0.218	0.219	0.231	0.211					0.479	0.475	0.551	0.443	0.792	0.729	0.76	0.73
EKVX	0.43	0.449	0.418	0.402	0.423	0.428	0.421	0.383	0.763	0.973	0.9	0.852	0.232	0.223	0.227	0.234	0.745	0.631	0.942	0.697
EMC-BAC-2	0.532	0.453	0.555	0.359	0.267	0.309	0.25	0.259	0.715	0.731	0.741	0.665	0.528	0.536	0.489	0.413	0.423	0.444	0.421	0.447
EPLC-272H	0.337	0.329	0.293	0.298	0.33	0.267	0.369	0.396	1.13	0.94	0.931	0.803	0.347	0.292	0.285	0.258	0.265	0.534	0.409	0.523
H3255	0.427	0.483	0.467	0.48	0.691	0.599	0.635	0.58	0.671	0.741	0.675	0.643	0.397	0.385	0.414	0.343	0.753	0.811	0.955	0.778
HARA	0.299	0.573	0.573	0.407	0.119	0.125	0.12	0.179	0.759	0.808	0.93	0.773	0.484	0.479	0.554	0.435	0.515	0.627	0.505	0.511
HCC-15	0.714	0.773	0.735	0.719	0.348	0.52	0.495	0.398	0.824	0.986	0.987	0.848	0.54	0.556	0.472	0.468	0.909	0.929	0.963	0.789
HCC-44	0.52	0.499	0.49	0.506	0.97	0.575	1.11	0.922	0.788	0.845	0.851	0.773	0.168	0.198	0.187	0.295	1.15	1.16	1.12	1.03
HCC-78	0.202	0.205	0.192	0.196	0.301	0.454	0.569	0.415	0.346	0.309	0.269	0.334	0.654	0.626	0.667	0.845	0.508	0.533	0.443	0.452
HCC-366	0.175	0.111	0.18	0.18	0.103	0.125	0.0939	0.196	0.505	0.264	0.48	0.381	0.645	0.61	0.696	0.565	0.355	0.331	0.351	0.281
